Measured values reported in article PMC8714961, “Involvement of P-gp on Reversing Multidrug Resistance Effects of 23-Hydroxybetulinic Acid on Chemotherapeutic Agents” (Frontiers in Pharmacology, 2021).
Like-named read-outs stand apart in the source and are kept apart here. Marks after values point to notes of the source that are not given here.

Legend:
P-gp [1] = molecular target: T1, P-gp (Homo sapiens, UniProt P08183); experiment: Caco-2 uptake study (digoxin, VCR)
Procedure: Briefly, the cells (1×10^5/Well) were cultured in 24-well plates, and culture medium was changed every other day. The uptake study was taken when the monolayers formed. […] After 2 h incubation, the drug solution was removed to terminate reaction, and the monolayers were washed three times with cold Hank’s solution. The other steps were taken according to the above process in Adriamycin/Vincristine Accumulation Study.

P-gp [2] = molecular target: T1, P-gp; experiment: MDCK-MDR1 transport study, inhibition of VCR transport; settings: for Folds (RE) of VCR: vs control
Procedure: Briefly, MDCK-MDR1 cells (1×10^5/Well) were seeded onto […] pore-size transwell inserts (Millipore, MA, United States) in 24-well plates.
(§1) The cells were rinsed with warmed Hank’s balanced salt solution (HBSS), and the inserts were incubated for 20 min at 37°C. […] Aliquots (50 µl) were taken from the receiver compartment at intervals of 30, 60, 90, and 120 min and replaced with fresh buffer. In the study, verapamil (VER), known P-gp inhibitor, was selected as positive control.
(§2) The apparent permeability values (Papp) were evaluated in all experiments according to the following equation: Papp=dQ/dt/AC0 (1) where A means the insert area and C0 represents the initial concentration. dQ/dt represents the slope of the cumulative content transported during the time course of the period studied.

MCF-7/ADR cells [3] = experiment: Trypan blue exclusion assay, MCF-7/ADR cells; type: cell-based
Procedure: (§3) MCF-7 (human breast carcinoma cells) and MCF-7/ADR (P-gp-overexpressing derivative cells) cell lines were obtained from Blood Diseases Hospital, Chinese Academy of Medica ([Shi et al., 2011]). The cells were routinely maintained in RPMI 1640 with 10% heat-inactivated fetal bovine serum (FBS), 1% non-essential amino acid solution, 0.1 mg/ml streptomycin, and 100 units/ml penicillin. Caco-2 cells were purchased from American Type Culture Collection (ATCC, Rockville, MD, United States). Vector-MDCK and MDR1-MDCK cells were purchased from PharmaResources Co., Ltd. (China). Both Caco-2 and MDCK cells were maintained at Dulbecco’s modified Eagle’s medium (DMEM) with 10% FBS, 1% non-essential amino acid solution, 0.1 mg/ml streptomycin, and 100 units/ml penicillin. MCF-7/ADR cells were treated with […] and were cultured in ADR-free medium for more than 14 days before the experiment. All cells were cultured at 37°C in a humidified atmosphere of 5% CO2.
(§4) Trypan blue exclusion assay was used to measure the viability of cells to compounds. Briefly, MCF-7/sensitive (MCF-7/S) and MCF-7/ADR cells were diluted into the density of 0.5×10^4 cells/ml, then cells (1 ml) were seeded in culture plates. […]. The viable and dead cells (stained in blue) were counted by haemacytometer.

MCF-7/ADR cells [4] = experiment: ADR/VCR accumulation study in MCF-7/ADR cells; settings: ADR/VCR 5 µM, test compound 0.2, 2, 20 µM, 1 h
Procedure: (§5) MCF-7 cells (1×10^5/Well) were incubated in 24-well plates. […] After 1 h incubation, the compound solution was aspirated to stop further accumulation, and the monolayers were rinsed with cold Hank’s solution for three times. The drug content was detected by lysing the cells with ultrasound, and then the single well lysate was transferred to a plastic EP tube for further analysis. The protein concentration of the cells was measured using Coomassie brilliant blue.

MCF-7/ADR cells [5] = experiment: Hoechst assay (apoptosis); type: cell-based, human; settings: for Number of apoptosis cells, single agent: vs control group
Procedure: MCF-7/ADR cells were collected and cultured at the density of 2.0 × 10^5/well in 24-well plates. […] The cells were dyed with Hoechst 33,342 (Beyotime, Shanghai, China) in the dark at 37°C for 30 min after washing with phosphate buffered saline (PBS). The morphological changes of the nucleus were evaluated by a fluorescence microscope.

P-gp [6] = molecular target: T1, P-gp; experiment: MDR1 shift assay (UIC2 binding); type: cell-based; design: endogenous in cells; host or cells: MCF-7/ADR; settings: 25 µM, MCF-7/ADR cells, vs solvent control
Procedure: The monoclonal antibody UIC2 (2.5 μl) was added and incubated for 15 min, then 1 ml of cold binding buffer was used to terminate reaction. The cells were rinsed twice, followed by adding cold phycoerythrin-labeled anti-mouse IgG (250 μl) for another 15 min in the dark. Finally, cells were rinsed and incubated in cold binding buffer (250 μl) and further evaluated by flow cytometer (Cytomics FC 500; Beckman Coulter, Fullerton, CA). In this study, vincristine (25 µM) was set as positive control.

[7] = system: MDCK-MDR1 cell monolayers; experiment: MDCK-MDR1 transport of BA/23-HBA with or without verapamil; settings: for Folds (RE): +VER (verapamil 20 µM) vs without VER
Procedure: Briefly, MDCK-MDR1 cells (1×10^5/Well) were seeded onto […] pore-size transwell inserts (Millipore, MA, United States) in 24-well plates. Cells were cultured for 5–7 days, when the transepithelial electrical resistance (TEER) values were 120–240 Ω cm^2.
as §1, §2
The efflux ratio (ER) was detected according to the ratio of Papp as the following equation: ER=Papp(B−A)/Papp(A−B) (2)

MCF-7/S cells [8] = experiment: Trypan blue exclusion assay, MCF-7/S cells; type: cell-based; settings: 0.2, 2 and 20 µM with ADR 0.08 µM or VCR 0.5 µM, 48 h
Procedure: as §3, §4

P-gp [9] = molecular target: T1, P-gp; settings: for Folds (RE) of digoxin: vs control
Procedure: Briefly, MDCK-MDR1 cells (1×10^5/Well) were seeded onto 0.4 mm pore-size transwell inserts (Millipore, MA, United States) in 24-well plates.

MCF-7/S cells [10] = experiment: ADR/VCR accumulation study in MCF-7/S cells; settings: ADR/VCR 5 µM, test compound 0.2, 2, 20 µM, 1 h
Procedure: as §5

[11] = compound 0.2 µM, +VER (verapamil 20 µM)
[12] = compound 0.2 µM, without verapamil
[13] = compound 2 µM, +VER (verapamil 20 µM)
[14] = compound 2 µM, without verapamil
[15] = compound 20 µM, +VER (verapamil 20 µM)
[16] = compound 20 µM, without verapamil
[17] = digoxin 5 µM with test compound 0.2 µM
[18] = digoxin 5 µM with test compound 2 µM
[19] = digoxin 5 µM with test compound 20 µM

T1 sequence (P08183 whole entry): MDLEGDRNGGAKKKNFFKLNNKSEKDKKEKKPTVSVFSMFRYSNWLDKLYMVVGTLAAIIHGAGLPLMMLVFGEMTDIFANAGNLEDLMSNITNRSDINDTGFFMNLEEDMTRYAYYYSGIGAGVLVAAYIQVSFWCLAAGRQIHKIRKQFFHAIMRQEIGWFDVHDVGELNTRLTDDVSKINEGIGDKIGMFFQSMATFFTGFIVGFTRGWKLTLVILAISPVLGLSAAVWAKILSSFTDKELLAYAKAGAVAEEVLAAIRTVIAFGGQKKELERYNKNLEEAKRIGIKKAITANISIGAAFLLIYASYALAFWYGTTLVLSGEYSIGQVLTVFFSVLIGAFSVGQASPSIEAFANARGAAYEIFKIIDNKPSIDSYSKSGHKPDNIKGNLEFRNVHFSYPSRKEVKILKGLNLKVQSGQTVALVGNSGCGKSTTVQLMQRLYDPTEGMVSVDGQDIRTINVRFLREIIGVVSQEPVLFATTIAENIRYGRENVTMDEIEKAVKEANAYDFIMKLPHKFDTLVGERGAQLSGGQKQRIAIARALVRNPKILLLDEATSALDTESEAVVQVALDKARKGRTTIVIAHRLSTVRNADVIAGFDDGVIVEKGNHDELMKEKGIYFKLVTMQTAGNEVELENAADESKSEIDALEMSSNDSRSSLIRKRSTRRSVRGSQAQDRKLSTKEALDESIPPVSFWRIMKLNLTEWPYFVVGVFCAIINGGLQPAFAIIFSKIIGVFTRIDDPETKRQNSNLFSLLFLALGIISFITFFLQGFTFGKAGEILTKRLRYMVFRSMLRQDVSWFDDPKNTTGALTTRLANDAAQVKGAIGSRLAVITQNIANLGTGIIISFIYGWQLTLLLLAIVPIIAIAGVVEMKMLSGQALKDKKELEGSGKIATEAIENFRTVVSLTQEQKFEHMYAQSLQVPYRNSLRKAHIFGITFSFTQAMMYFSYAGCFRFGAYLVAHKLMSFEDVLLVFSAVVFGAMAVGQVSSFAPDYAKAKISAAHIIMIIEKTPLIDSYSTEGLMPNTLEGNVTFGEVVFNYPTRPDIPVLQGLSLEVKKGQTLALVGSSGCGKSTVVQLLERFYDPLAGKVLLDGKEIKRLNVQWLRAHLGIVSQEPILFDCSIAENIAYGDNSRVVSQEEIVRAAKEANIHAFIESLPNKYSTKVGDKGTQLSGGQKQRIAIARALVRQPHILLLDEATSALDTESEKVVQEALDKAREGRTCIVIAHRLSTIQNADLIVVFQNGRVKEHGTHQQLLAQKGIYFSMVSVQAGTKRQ

SMILES: C=C(C)[C@@H]1CC[C@]2(C(=O)O)CC[C@]3(C)[C@H](CC[C@@H]4[C@@]5(C)CC[C@H](O)[C@@](C)(CO)[C@@H]5CC[C@]43C)[C@@H]12 [23-HBA, 23-hydroxybetulinic acid]
- Inhibitory effect compared with verapamil (20 µM) in Caco-2 cells (P-gp [1]; 20 µM): higher than that of verapamil
- Effect on uptake of VCR and digoxin in Caco-2 cells (P-gp inhibition) (P-gp [1]; 0.2, 2 and 20 µM, 2 h): showed dose-dependent increase on the penetration of VCR and digoxin
- Papp A→B of VCR (P-gp [2]; VCR with test compound 0.2 µM): 0.69 ± 0.30 ×10^−6 cm s^−1
- Papp B→A of VCR (P-gp [2]; VCR with test compound 0.2 µM): 4.45 ± 1.12 ×10^−6 cm s^−1
- RE (net efflux) of VCR (P-gp [2]; VCR with test compound 0.2 µM): 6.41
- Folds (RE) of VCR (P-gp [2]; VCR with test compound 0.2 µM): 1.70
- Papp A→B of VCR (P-gp [2]; VCR with test compound 2 µM): 2.49 ± 0.59 ×10^−6 cm s^−1
- Papp B→A of VCR (P-gp [2]; VCR with test compound 2 µM): 0.39 ± 0.01 ×10^−6 cm s^−1
- RE (net efflux) of VCR (P-gp [2]; VCR with test compound 2 µM): 0.16
- Folds (RE) of VCR (P-gp [2]; VCR with test compound 2 µM): 70.15
- Papp A→B of VCR (P-gp [2]; VCR with test compound 20 µM): 2.19 ± 1.74 ×10^−6 cm s^−1
- Papp B→A of VCR (P-gp [2]; VCR with test compound 20 µM): 0.48 ± 0.08 ×10^−6 cm s^−1
- RE (net efflux) of VCR (P-gp [2]; VCR with test compound 20 µM): 0.22
- Folds (RE) of VCR (P-gp [2]; VCR with test compound 20 µM): 49.32
- Cytotoxicity of combination exposure with ADR to MCF-7/ADR (MCF-7/ADR cells [3]; 0–20 µM with ADR 3 µM): showed significant cytotoxicity to MCF-7/ADR
- Cell toxicity as a single agent (MCF-7/ADR cells [3]; 0–20 µM, single agent): no cell toxicity was detected
- Effect on cytotoxicity of MCF-7/ADR cells to ADR or VCR (MCF-7/ADR cells [3]; 0.2, 2 and 20 µM with ADR 3 µM or VCR 6 µM, 48 h): can increase cytotoxicity of MCF-7/ADR cells to ADR or VCR in concentration-dependent manner
- Intracellular accumulation of ADR/VCR in resistant MCF-7 cells (MCF-7/ADR cells [4]): obviously increased
- Number of apoptosis cells, single agent (MCF-7/ADR cells [5]; 20 µM alone): not obviously different with the control group
- Apoptosis caused by ADR in combination exposure (MCF-7/ADR cells [5]; 2 and 20 µM with ADR 3 µM): dose-dependent (2 and 20 μM) increase in the apoptosis caused by ADR
- Fluorescence intensity of UIC2 binding (MDR1 shift) (P-gp [6]): fluorescence intensity showed slight increase
- ER values ([7]; MDCK-MDR1 cells, all the concentrations (0.2–20 µM)): less than 1.5
- Papp A-B [7, 11]: 8.49 ± 1.39 ×10^−6 cm s^−1
- Papp B-A [7, 11]: 5.20 ± 0.59 ×10^−6 cm s^−1
- RE (net efflux) [7, 11]: 0.61**
- Folds (RE) ([7]; compound 0.2 µM): 0.41
- Papp A-B [7, 12]: 6.73 ± 0.09 ×10^−6 cm s^−1
- Papp B-A [7, 12]: 10.01 ± 1.38 ×10^−6 cm s^−1
- RE (net efflux) [7, 12]: 1.49
- Papp A-B [7, 13]: 10.03 ± 3.22 ×10^−6 cm s^−1
- Papp B-A [7, 13]: 7.83 ± 0.32 ×10^−6 cm s^−1
- RE (net efflux) [7, 13]: 0.78*
- Folds (RE) ([7]; compound 2 µM): 0.63
- Papp A-B [7, 14]: 7.07 ± 0.64 ×10^−6 cm s^−1
- Papp B-A [7, 14]: 8.75 ± 0.31 ×10^−6 cm s^−1
- RE (net efflux) [7, 14]: 1.24
- Papp A-B [7, 15]: 12.76 ± 1.13 ×10^−6 cm s^−1
- Papp B-A [7, 15]: 7.47 ± 1.64 ×10^−6 cm s^−1
- RE (net efflux) [7, 15]: 0.59
- Folds (RE) ([7]; compound 20 µM): 0.82
- Papp A-B [7, 16]: 5.95 ± 0.94 ×10^−6 cm s^−1
- RE (net efflux) [7, 16]: 0.72
- Effect on cytotoxicity of MCF-7/S cells to ADR or VCR (MCF-7/S cells [8]): neither 23-HBA nor BA showed significant effects on cytotoxicity
- RE (net efflux) of digoxin (P-gp [9]; [17]): 31.57
- Folds (RE) of digoxin (P-gp [9]; [17]): 1.16
- RE (net efflux) of digoxin (P-gp [9]; [18]): 27.96
- Folds (RE) of digoxin (P-gp [9]; [18]): 1.31
- RE (net efflux) of digoxin (P-gp [9]; [19]): 2.69
- Folds (RE) of digoxin (P-gp [9]; [19]): 13.61
- Accumulation of ADR/VCR in sensitive MCF-7 cells (MCF-7/S cells [10]): little impact was observed

SMILES: COc1cccc2c1C(=O)c1c(O)c3c(c(O)c1C2=O)C[C@@](O)(C(=O)CO)C[C@@H]3O[C@H]1C[C@H](N)[C@H](O)[C@H](C)O1 [ADR, Adriamycin, reference compound]
- Number of apoptosis cells, single agent (MCF-7/ADR cells [5]; 3 µM alone): not obviously different with the control group
